The target of one assay is T1, P2X7 receptor (Homo sapiens, UniProt Q99572).
T1 construct: host or cells: SH-SY5Y
T1 sequence (Q99572 1-595): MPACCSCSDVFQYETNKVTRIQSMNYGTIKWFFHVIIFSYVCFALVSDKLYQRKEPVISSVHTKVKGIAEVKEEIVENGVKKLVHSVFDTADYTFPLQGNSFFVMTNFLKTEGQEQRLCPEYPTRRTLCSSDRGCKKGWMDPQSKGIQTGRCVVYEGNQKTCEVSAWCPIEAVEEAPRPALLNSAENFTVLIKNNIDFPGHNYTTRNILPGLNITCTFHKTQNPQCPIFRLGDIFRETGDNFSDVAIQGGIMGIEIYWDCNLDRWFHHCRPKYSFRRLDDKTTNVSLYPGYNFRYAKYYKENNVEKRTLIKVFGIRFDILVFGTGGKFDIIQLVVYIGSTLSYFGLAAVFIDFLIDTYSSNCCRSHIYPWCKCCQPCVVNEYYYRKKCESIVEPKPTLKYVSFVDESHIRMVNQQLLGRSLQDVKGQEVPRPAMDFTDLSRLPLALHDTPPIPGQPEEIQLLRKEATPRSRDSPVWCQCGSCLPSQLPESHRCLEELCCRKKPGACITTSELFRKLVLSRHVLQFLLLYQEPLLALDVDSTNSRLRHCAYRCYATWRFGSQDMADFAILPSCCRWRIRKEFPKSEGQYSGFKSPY
As to the kind of experiment: P2X7 calcium mobilization assay, high throughput, antagonist activity (Example 4A). The class given is cell-based. The settings on record: 50% decrease in the fluorescence response of cells exposed to 80 μM 2′(3′)-O-(4-benzoyl-benzoyl)adenosine 5′-triphosphate; Example 4A; read-out: IC50. The procedure: One day prior to the experiment, cells are plated at a density of 100,000 cells/well in a 96 well black/clear TC plate (Corning® Costar®, Sigma-Aldrich Co., St. Louis, Mo.). […] After one hour dye incubation, wells are rinsed once with 50 μL assay solution, and are then incubated for an hour at room temperature with 100 μL assay solution containing the test compound. […] After the one hour incubation, plates are transferred to a FLIPR^TETRA instrument (Molecular Devices, Sunnyvale, Calif.) for calcium mobilization analysis.
First, the average maximum relative fluorescent unit (RFU) response from the negative control wells (no agonist) is subtracted from the maximum response detected for each of the other experimental wells. Second, average maximum RFU response is calculated for the positive control wells (agonist wells).
Background: A change in cytosolic calcium serves as a functional read-out for many receptors and channels.
As usually defined, the IC50 is the point on the concentration scale where inhibition reaches its midpoint. On to `CC1(C)C2CC[C@H](CNC(=O)c3cccc4nc(C(=O)N5CCC[C@@H](N)C5)cn34)C1C2` (relative stereo) [Compound 548, rel-2-{[(3R)-3-aminopiperidin-1-yl]carbonyl}-N-{[(2S)-6,6-dimethylbicyclo[3.1.1]hept-2-yl]methyl}imidazo[1,2-a]pyridine-5-carboxamide], for which the IC50 is less than 2000 nM.
On to `CCNCc1cn2c(C(=O)NCC34CC5CC(CC(C5)C3)C4)cccc2n1` [Compound 534, N-(adamantan-1-ylmethyl)-2-[(ethylamino)methyl] imidazo[1,2-a]pyridine-5-carboxamide], for which the IC50 is less than 2000 nM.
Same read-out and setting: the value for `O=C(CC12CC3CC(CC(C3)C1)C2)Nc1cccc2nc(C(=O)N3CCC(O)CC3)cn12` [Compound 426, 2-adamantan-1-yl-N-{2-[(4-hydroxypiperidin-1-yl)carbonyl]imidazo [1,2-a]pyridin-5-yl}acetamide] was less than 2000 nM.

Still in this assay, the particulars now being: 50% decrease in the fluorescence response of cells exposed to 80 μM of 2′(3′)-O-(4-benzoyl-benzoyl)adenosine 5′-triphosphate; Example 4A; read-out: IC50.
For `CC(C)CC(CNC(=O)c1cccc2nc(CC(=O)N3CCCC(N(C)C)C3)cn12)c1ccccc1` (stereo not drawn) [Compound 789, 2-{2-[3-(dimethylamino)piperidin-1-yl]-2-oxoethyl}-N-(4-methyl-2-phenylpentyl) imidazo[1,2-a] pyridine-5-carboxamide], the IC50 was less than 2000 nM.
Same read-out and setting: the value for `CN1CCC(N(C)C(=O)c2cn3c(C(=O)NCC45CC6CC(CC(C6)C4)C5)cccc3n2)CC1` [Compound 671, 5-N-(adamantan-1-ylmethyl)-2-N-methyl-2-N-(1-methylpiperidin-4-yl)imidazo[1,2-a]pyridine-2,5-dicarboxamide] was less than 2000 nM; that for `CC(C)CC(CNC(=O)c1cccc2nc(CN3CC[C@@H](NC(=O)OC(C)(C)C)C3)cn12)C1CCCCC1` (stereo in doubt) [Compound 738, tert-butyl [1-({5-[(2-cyclohexyl-4-methylpentyl)carbamoyl]imidazo [1,2-a]pyridin-2-yl}methyl)pyrrolidin-3-yl]carbamate] was less than 2000 nM.
Still for that read-out and setting: in the case of `CC(C)(Cc1cn2c(C(=O)NCC34CC5CC(CC(C5)C3)C4)cccc2n1)C(=O)O` [Compound 731, 3-{5-[(adamantan-1-ylmethyl)carbamoyl]imidazo[1,2-a]pyridin-2-yl}-2,2-dimethylpropanoic acid] it was less than 2000 nM; in that of `CCN(CC)CCN(C)C(=O)c1cn2c(C(=O)NCC34CC5CC(CC(C5)C3)C4)cccc2n1` [Compound 675, 5-N-(adamantan-1-ylmethyl)-2-N-[2-(diethylamino)ethyl]-2-N-methylimidazo[1,2-a]pyridine-2,5-dicarboxamide], less than 2000 nM; in that of `CCOC(=O)C(Cc1ccncc1)c1cn2c(C(=O)NCC34CC5CC(CC(C5)C3)C4)cccc2n1` (stereo not drawn) [Compound 735, ethyl 2-{5-[(adamantan-1-ylmethyl)carbamoyl]imidazo[1,2-a]pyridin-2-yl}-3-pyridin-4-ylpropanoate], less than 2000 nM.
Regarding `N[C@@H]1CCN(Cc2cn3c(C(=O)NCC(CC4CCCC4)c4ccccc4)cccc3n2)C1` (stereo partly drawn) [Compound 786, 2-[(3-aminopyrrolidin-1-yl)methyl]-N-(3-cyclopentyl-2-phenylpropyl) imidazo[1,2-a] pyridine-5-carboxamide], the IC50 is less than 2000 nM.

The same assay, now with this note: 50% decrease in the fluorescence response of cells exposed to 80 μM of 2′(3′)-O-(4-benzoyl-benzoyl)adenosine 5′-triphosphate; determined as in Example 4A; read-out: IC50.
On to `O=C(Cc1cn2c(C(=O)NC3CCCCC3)cccc2n1)NCC12CC3CC(CC(C3)C1)C2` [Compound 973, 2-{2-[(adamantan-1-ylmethyl)amino]-2-oxoethyl}-N-cyclohexylimidazo[1,2-a]pyridine-5-carboxamide], for which the IC50 was less than 2000 nM.
As to `O=C(Cc1cn2c(C(=O)NCC3(c4ccc(C(F)(F)F)cc4)CCCCC3)cccc2n1)NC1CCCC1` [Compound 877, 2-[2-(cyclopentylamino)-2-oxoethyl]-N-({1-[4-(trifluoromethyl)phenyl]cyclohexyl}methyl) imidazo[1,2-a] pyridine-5-carboxamide], the IC50 is less than 2000 nM.
In the case of `CC(C)CC(CNC(=O)c1cccc2nc(CC(=O)O)cn12)c1ccc(Cl)cc1` (stereo not drawn) [Compound 964, (5-{[2-(4-chlorophenyl)-4-methylpentyl]carbamoyl}imidazo[1,2-a]pyridin-2-yl) acetic acid], the IC50 is less than 2000 nM.
On the same count and under the same terms, the value for `CC(C)CC(CNC(=O)Cc1cn2c(C(=O)NC3CCCCC3)cccc2n1)c1ccc(Cl)cc1` (stereo not drawn) [Compound 975, 2-(2-{[2-(4-chlorophenyl)-4-methylpentyl]amino}-2-oxoethyl)-N-cyclohexylimidazo [1,2-a]pyridine-5-carboxamide] was less than 2000 nM; that for `CCCCCCCC(CNC(=O)c1cccc2nc(CC(=O)O)cn12)c1ccccc1` (stereo not drawn) [Compound 966, {5-[(2-phenylnonyl)carbamoyl]imidazo[1,2-a]pyridin-2-yl} acetic acid] was less than 2000 nM; that for `CC(C)CC(CNC(=O)c1cccc2nc(CN3CCC[C@@H](N)C3)cn12)c1ccc(Cl)cc1` (stereo partly drawn) [Compound 916, 2-{[(3R)-3-aminopiperidin-1-yl]methyl}-N-[2-(4-chlorophenyl)-4-methylpentyl] imidazo [1,2-a]pyridine-5-carboxamide] was less than 2000 nM.

The assay is the same for the next values; noted with them: P2X7 calcium mobilization, Example 4A; 50% decrease in the fluorescence response of cells exposed to 80 μM of (2′(3′)-O-(4-benzoyl-benzoyl)adenosine 5′-triphosephate); read-out: IC50.
Take `CC(=O)c1cn2c(C(=O)NCC(CC(C)C)c3ccc(Cl)cc3)cccc2n1` (stereo not drawn) [Compound 1032, 2-acetyl-N-[2-(4-chlorophenyl)-4-methylpentyl] imidazo[1,2-a] pyridine-5-carboxamlde]: the IC50 is less than 2000 nM.

Staying with this assay, now noted: SH-SY5Y cells; 50% decrease in fluorescence response to 80 μM BzATP; read-out: IC50.
As for `O=C(NCC12CC3CC(CC(C3)C1)C2)c1cccc2nc(CNCc3ccccn3)cn12` [Compound 68, N-(adamantan-1-ylmethyl)-2-{[(pyridin-2-ylmethyl)amino]meth-yl}imidazo[1,2-a]pyridine-5-carboxamide], the IC50 is less than 2000 nM.
On to `CC(C)OCCNC(=O)Cc1cn2c(C(=O)NCC34CC5CC(CC(C5)C3)C4)cccc2n1` [Compound 156, N-(adamantan-1-ylmethyl)-2-{2-[(2-isopropoxyethyl)amino]-2-oxoethyl}imidazo[1,2-a]pyridine-5-carboxamide], for which the IC50 was less than 2000 nM.
Take `Nc1ccnn1Cc1cn2c(C(=O)NCC34CC5CC(CC(C5)C3)C4)cccc2n1` [Compound 209, N-(adamantan-1-ylmethyl)-2-[(5-amino-1H-pyrazol-1-yl)methyl]imidazo[1,2-a]pyridine-5-carboxamide]: the IC50 was less than 2000 nM.
For `CC1(O)CCN(C(=O)Cc2cn3c(C(=O)NCC45CC6CC(CC(C6)C4)C5)cccc3n2)C1` (stereo not drawn) [Compound 60, N-(adamantan-1-ylmethyl)-2-[2-(3-hydroxy-3-methylpyrrolidin-1-yl)-2-oxoethyl]imidazo[1,2-a]pyridine-5-carboxamide], the IC50 was less than 2000 nM.
Still for that read-out and setting: the value for `CC(=O)N[C@@H]1CCN(Cc2cn3c(C(=O)NCC45CC6CC(CC(C6)C4)C5)cccc3n2)C1` [Compound 70, 2-[(3-acetamidopyrrolidin-1-yl)methyl]-N-(adamantan-1-ylmethyl)imidazo[1,2-a]pyridine-5-carboxamide] was less than 2000 nM.

Still in this assay, the particulars now being: fluorescence response of cells exposed to 80 μM 2′(3′)-O-(4-benzoyl-benzoyl)adenosine 5′-triphosphate; Example 4A; read-out: IC50.
Take `Cc1cc(-c2cn3c(C(=O)NCC45CC6CC(CC(C6)C4)C5)cccc3n2)n(CCO)n1` [Compound 339, N-(adamantan-1-ylmethyl)-2-[1-(2-hydroxyethyl)-3-methyl-1H-pyrazol-5-yl]imidazo[1,2-a]pyridine-5-carboxamide]: the IC50 was less than 2000 nM.
With `COC(=O)C1CCCN1C(=O)c1cn2c(NC(=O)CC34CC5CC(CC(C5)C3)C4)cccc2n1` (stereo not drawn) [Compound 376, methyl 1-({5-[(adamantan-1-ylacetyl)amino]imidazo [1,2-a]pyridin-2-yl}carbonyl)prolinate], the IC50 was less than 2000 nM.
Consider `NCCSCc1cn2c(C(=O)NCC34CC5CC(CC(C5)C3)C4)cccc2n1` [Compound 266, N-(adamantan-1-ylmethyl)-2-{[(2-aminoethyl)thio]methyl}imidazo[1,2-a]pyridine-5-carboxamide], for which the IC50 is less than 2000 nM.
Regarding `CCCN(C)C(=O)Cc1cn2c(C(=O)NCC(CC(C)C)c3ccccc3)cccc2n1` (stereo not drawn) [Compound 246, N-(4-methyl-2-phenylpentyl)-2-{2-[methyl(propyl)amino]-2-oxoethyl)imidazo[1,2-a]pyridine-5-carboxamide], the IC50 was less than 2000 nM.
Same read-out and setting: in the case of `O=C(O)COCc1cn2c(C(=O)NCC34CC5CC(CC(C5)C3)C4)cccc2n1` [Compound 285, ({5-[{adamantan-1-ylmethyl)carbamoyl]imidazo[1,2-a]pyridin-2-yl}methoxy)acetic acid] it was less than 2000 nM.

The values above are taken from US8431593B2, “Heteroaryl amide derivatives” (H. Lundbeck A/S, priority 2006, dated 2013).
